# Values joined by “and” are separate entries in the source; they are usually repeats but may differ in a detail not shown here. Identical values can stand only once.
# Key:
# [1] = tested on: patients with HER2/neu+ breast cancer; settings: clinical vaccines in HER2/neu+ breast cancer; cited from earlier work
# CD8 T lymphocytes = test: HLA-A2:Ig dimer staining with control peptide-loaded dimers; format: cell-based, human; settings: almost 2000 peripheral blood samples from about 200-300 patients
Substance,safety and stimulation of antigen-specific immunity [1],background binding value of negative control dimers (CD8 T lymphocytes)
IISAVVGIL [GP2],safe and effective in stimulating antigen-specific immunity,–
NH2-RIAWARTEL-COOH (H-RIAWARTEL-OH) [E37],–,03% and 0.25-0.34%

# Reference: patent US20160258951A1, “METHODS OF MONITORING IMMUNE RESPONSES” (THE HENRY M. JACKSON FOUNDATION FOR THE ADVANCEMENT OF …, priority 2013, published 2016)
